Measurements: paper PMC10082216 (Nature Communications, 2023)
Where two headings read alike, the source gives them in different places.

Columns and labels:
[1] = tested on: mature stage V gametocytes (NF54 strain); experiment: High-throughput screening: killing effect by MitoTracker staining, primary screening at 1.11 µM and dose-response analysis; assay type: cell-based, Plasmodium falciparum; set-up: Killing 1 / Killing 2: unit not given here
Method in brief: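 NF54 stage V gametocytes (day 17, density-purified, 0.5% hematocrit) exposed 24 h to compounds at 1.11 µM (primary) or in dose-response. Killing scored by MitoTracker staining; gametocytemia by Sybr Green/CellMask staining, with microsphiltration for stiffening. DMSO 0.05% negative control.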

[2] = tested on: synchronized ring-stage P. falciparum 3D7-pULG8-GFP; experiment: Dose-response analysis on asexual parasites, 3D7; assay type: cell-based; conditions: Plasmodium falciparum
Protocol: (§1) Plasmodium falciparum 3D7-pULG8-GFP or NF54 strains were synchronized by sorbitol lysis. Rings were then diluted to 0.5% parasitemia and loaded into an empty 96-well plate (200 µL/well). First, well volume was doubled and compound was added to obtain 20 µM (TD-6450) and 500 nM (NITD609) final concentrations. The ring suspension was then manually serially diluted 1/2 for 12 points, obtaining 9.77 nM (TD-6450) and 0.24 nM (NITD609) as lowest concentrations. The same operation was done with DMSO to have a negative control. After 48 hours of incubation, the plates were centrifugated and RBC pellets were incubated for 30 min with Sybr-G (1/1000 diluted in PBS, Thermo Fisher cat. no. S7567). After PBS washing (2x), pellets were resuspended in 200 µL of PBS and parasitemia was quantified by FACSCanto and analyzed with FlowJo V12. IC50s were determined using GraphPad Prism 5.1 as mentioned. Images from optical microscopy were taken using a Leica inverted microscope and analyzed with Las X software.

[3] = tested on: synchronized ring-stage P. falciparum NF54; experiment: Dose-response analysis on asexual parasites, NF54; assay type: cell-based, Plasmodium falciparum; conditions: for IC50: Plasmodium falciparum, NF54, 48 h; for Parasitemia 1 / Parasitemia 2 / Parasitemia 3: NF54 ring stage
Protocol: as §1

[4] = 3D7, 48 h, read-out: IC50, 3D7 strain (Fig. 5B)

Structure (SMILES) | Killing 1 ([1]; Concentration (µM) 0.00457) | Killing 2 ([1]; Concentration (µM) 0.00457) | Killing 1 ([1]; Concentration (µM) 0.01372) | Killing 2 ([1]; Concentration (µM) 0.01372) | Killing 1 ([1]; Concentration (µM) 0.04115) | Killing 2 ([1]; Concentration (µM) 0.04115) | Killing 1 ([1]; Concentration (µM) 0.12346) | Killing 2 ([1]; Concentration (µM) 0.12346) | Killing 1 ([1]; Concentration (µM) 0.37037) | Killing 2 ([1]; Concentration (µM) 0.37037) | Killing 2 ([1]; Concentration (µM) 1.11111) | Killing 2 ([1]; Concentration (µM) 3.33333) | Killing 2 ([1]; Concentration (µM) 10) | Killing 1 ([1]; Concentration (µM) 1.11111) | Killing 1 ([1]; Concentration (µM) 3.33333) | Killing 1 ([1]; Concentration (µM) 10) | IC50 [2, 4] [nM] | also measured
COc1cc2c(cc1OC)[C@@H]1Cc3ccc(OC)c(OC)c3CN1CC2 [(S)-(-)-Tetrahydropalmatine] | -2.5151 | 13.1152 | -0.7507 | 16.6892 | -11.759 | -1.725 | -2.104 | -3.416 | -7.032 | 6.932 | -20.6174 | 1.7558 | -10.2887 | – | – | – | – | –
C[C@H]1Cc2c([nH]c3cc(Cl)c(F)cc23)[C@@]2(N1)C(=O)Nc1ccc(Cl)cc12 [NITD609, cipargamin] | -6.197 | 1.637 | 7.015 | 11.7246 | 2.936 | 8.401 | 38.3591 | 39.938 | 69.6281 | 81.8548 | 86.5546 | 89.8018 | 89.7094 | 86.7644 | 82.0471 | 93.1364 | 1.25 | Killing IC10 ([1]; Fig. 3 dose-response): 0.05 µM; IC50 ([1]; Plasmodium falciparum, NF54, 24 h, stage V gametocytes NF54, 24 h, dose-response analysis, N/A = not active in dose-response analysis, read-out: Killing IC50): 150 nM; IC90 ([1]; Plasmodium falciparum, NF54, Fig. 3 dose-response): 500 nM; IC50 ([3]; ring stage, red curves, read-out: IC50, NF54 strain (Fig. 5B)): 1.8 nM
CNC(=O)N1C[C@@H](C)N(c2ccc(C(=O)Nc3ccc(-c4ccc(-c5c[nH]c([C@@H]6CCCN6C(=O)[C@@H](NC(=O)OC)C(C)C)n5)cc4)c(OC(F)(F)F)c3)cn2)C[C@@H]1C [TD-6450] | 11.2808 | -14.2963 | 2.341 | 5.18 | 2.7905 | -6.465 | 6.495 | 2.622 | 21.5808 | 10.8967 | -5.531 | 15.2641 | 9.163 | 13.8006 | 21.7528 | 38.4381 | 730 | IC50 ([2]; 3D7, 2 experiments, 48 h, read-out: IC50 on asexual parasites, 3D7): 875 ± 205 nM; Parasitemia 1 ([3]; 10 µM): 0.14; Parasitemia 2 ([3]; 10 µM): 0.17; Parasitemia 3 ([3]; 10 µM): 0.23; Parasitemia 1 ([3]; 20 µM): 0.2; Parasitemia 2 ([3]; 20 µM): 0.18; Parasitemia 3 ([3]; 20 µM): 0.2; IC50 ([3]; 2 experiments, read-out: IC50 on asexual parasites, NF54): 1330 ± 230 nM; IC50 ([3]; ring stage, blue curves, read-out: IC50, NF54 strain (Fig. 5B)): 1170 nM
